For one assay, the target named is T1, Squalene Synthetase (Rattus norvegicus, UniProt Q02769).
T1 construct: from tissue; host or cells: rat liver microsomes
T1 sequence (Q02769 1-416): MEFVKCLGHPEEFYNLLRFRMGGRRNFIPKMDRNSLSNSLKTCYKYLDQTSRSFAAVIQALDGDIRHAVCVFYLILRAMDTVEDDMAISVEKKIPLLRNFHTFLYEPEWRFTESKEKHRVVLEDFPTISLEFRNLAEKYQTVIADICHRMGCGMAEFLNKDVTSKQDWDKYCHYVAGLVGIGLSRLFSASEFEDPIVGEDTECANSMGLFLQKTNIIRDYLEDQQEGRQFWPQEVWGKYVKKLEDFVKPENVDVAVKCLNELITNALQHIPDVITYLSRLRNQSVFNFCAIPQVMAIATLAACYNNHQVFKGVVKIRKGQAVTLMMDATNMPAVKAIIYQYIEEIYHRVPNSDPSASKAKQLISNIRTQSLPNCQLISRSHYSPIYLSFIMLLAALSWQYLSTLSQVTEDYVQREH
The experiment in a line: Inhibition of Squalene Synthetase (formation of squalene from tritiated farnesyl pyrophosphate, rat liver microsomal protein). It is filed as biochemical. The note with it: 20 μM 1-[3H]-farnesyl pyrophosphate, 15 minutes, 37° C., read-out: IC50 (concentration which results in a 50% inhibition of squalene production). How it is done: (a) Inhibition of Squalene Synthetase
In this test, the ability of a compound to prevent the formation of squalene from a radioactive substrate (tritiated farnesyl pyrophosphate) is assessed.
The test compound is incubated at a concentration of 25 micromolar in 200 μl of a buffered solution containing potassium phosphate (50 mM), MgCl2 (4.95 mM), KF (9.9 mM), NADPH (0.9 mM) and rat liver microsomal protein (20 μg). Rat liver microsomes are prepared by the method described in published European Patent Application No. 324,421 and stored in liquid nitrogen prior to assay. Assay vials are kept at 37° C. throughout the incubation.
The reaction is started with the addition of the substrate (1-[^3 H]-farnesyl pyrophosphate), final concentration 20 μM, and stopped after 15 minutes reaction time with the addition of 50 μl of 4% KOH. The reaction products are separated from unreacted substrate after application to a C-18 octadecyl 1ccBond column (Analytichem Int product No. 617101). An aqueous fraction is eluted with 250 μl of 0.1M KOH. Squalene is then eluted with 1.0 ml 10% ethylacetate in hexane and radioactivity determined. The difference in radioactivity in the presence and absence of the test compound is used to determine the level of inhibition. […] The IC50 can then be determined from a plot of percentage inhibition against concentration of test compound.

The subject of assay [1] is de novo hepatic cholesterol synthesis. The experiment in a line: Acute Rat Cholesterol Synthesis Assay (de novo hepatic cholesterol synthesis from exogenously administered 14C-acetate). Format: in vivo. The note with it: female rats, oral gavage, ip or iv (route not specified), 14C-acetate ip after 1 hour, blood sample a further hour later. As for the experimental part:
(b) Acute Rat Cholesterol Synthesis Assay
This is an acute in vivo test in the rat to measure de novo hepatic cholesterol synthesis from exogenously administered ^14 C-acetate.
Female rats (35-55 g) are housed in reverse lighting conditions (red light from 0200h-1400h) for a period of about 2 weeks prior to test. Animals are allowed free access to chow and drinking water throughout this period. At test, animals should weigh 125-150 g.
Test compounds may be administered by oral gavage, dissolved or suspended in 0.5% polysorbate, or by ip or iv dosing. Control animals receive vehicle alone. After 1 hour the rats are injected ip with 25 μCi [2-^14 C]-acetate (NEN DUPONT. specific activity, 45-60 mCi/mmol NEC-085H, or AMERSHAM specific activity, 50-60 mCi/mmol CFA 14) in a volume of 0.25 ml saline (100 μCi/ml). After a further hour, rats are terminally anaesthetised with halothane and a blood sample obtained from the abdominal vena cava.
1 ml of plasma is lyophilised and then saponified in 2 ml ethanolic KOH (1 part 33% KOH, 9 parts ethanol) at 75° C. for 2 hours. After addition of an equal quantity of water, non-saponifiable lipids are extracted with two 5 ml volumes of hexane. The hexane extracts are evaporated to dryness and the residues dissolved in ethanol to determine cholesterol specific radioactivity. ED50 values can be determined in the standard way.

SMILES strings stand for the structures.

`OC1(c2cccc(-c3ccccc3)c2)CN2CCC1CC2` (centres unmarked) [Example 3, 3-(biphenyl-3-yl)-3-hydroxyquinuclidine]: the IC50 at Squalene Synthetase was 600 nM.
The compound `OC1(c2ccc(-c3ccc(F)cc3)cc2)CN2CCC1CC2` (centres unmarked) [Example 6, 3-[4'-fluorobiphenyl-4-yl]-3-hydroxyquinuclidine] displayed an ED50 in assay [1] of 8 mg/kg.

These data come from patent US5792777A, “Biphenyl quinuclidines” (Zeneca Limited, priority 1991, dated 1998).
